The source of these data is patent US7560468B2, “Substituted 1,4,8-triazaspiro[4,5]decan-2-one compounds” (Gruenenthal GmbH, priority 2004, dated 2009).

One test concerns the target T1, 5-HT transporter (Rattus norvegicus, UniProt P31652).
T1 construct: from tissue; host or cells: rat brain synaptosomes (marrow/medulla and pons), P2 fraction
The experiment in a line: Inhibition of 5-HT uptake in synaptosomes. The class given is biochemical. To be noted: for inhibition at 1 µM: read-out: Uptake_5-HT, rat, 1 μM, % inhibition.

Test [1] deals with batrachotoxin (BTX) binding site of the sodium channel. The experiment in a line: Affinity to the batrachotoxin (BTX) binding site of the sodium channel. To be noted: rat cerebrocortex synaptosomes, [3H]-batrachotoxinin A20 α-benzoate 10 nM; test concentration not given.

T1 sequence (P31652 whole entry): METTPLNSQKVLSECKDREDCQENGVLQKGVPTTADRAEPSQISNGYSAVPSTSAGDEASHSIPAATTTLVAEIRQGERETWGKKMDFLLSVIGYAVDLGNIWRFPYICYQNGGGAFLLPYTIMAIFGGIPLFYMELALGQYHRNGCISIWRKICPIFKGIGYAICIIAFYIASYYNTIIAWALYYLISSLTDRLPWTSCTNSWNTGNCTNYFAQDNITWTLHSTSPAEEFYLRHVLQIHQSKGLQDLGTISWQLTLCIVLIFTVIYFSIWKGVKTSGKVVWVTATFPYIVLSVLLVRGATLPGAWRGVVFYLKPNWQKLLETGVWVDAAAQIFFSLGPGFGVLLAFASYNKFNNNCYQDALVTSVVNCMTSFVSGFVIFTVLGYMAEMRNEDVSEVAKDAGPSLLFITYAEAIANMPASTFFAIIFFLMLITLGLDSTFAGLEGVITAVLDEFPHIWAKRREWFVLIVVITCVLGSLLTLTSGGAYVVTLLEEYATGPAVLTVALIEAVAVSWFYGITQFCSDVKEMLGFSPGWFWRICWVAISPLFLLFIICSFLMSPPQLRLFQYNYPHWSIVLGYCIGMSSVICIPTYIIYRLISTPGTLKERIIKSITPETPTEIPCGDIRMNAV

`CCCCOc1ccc(S(=O)(=O)N2CCC3(CC2)NCC(=O)N3Cc2ccccc2C#N)cc1` [Example 5, 2-[8-(4-Butoxy-benzolsulfonyl)-2-oxo-1,4,8-triazaspiro[4,5]dec-1-ylmethyl]-benzonitrile]: at 5-HT transporter, the “Uptake_5-HT, rat, 1 μM, % inhibition” value was 30%. Moreover, the “BTX Inhibition” value in test [1] is 59.
In the case of `CCC(C)(C)c1ccc(S(=O)(=O)N2CCC3(CC2)NCC(=O)N3Cc2ccccc2C#N)cc1` [Example 6, 2-{8-[4-(1,1-Dimethylpropyl)benzolesulfonyl]-2-oxo-1,4,8-triazaspiro[4,5]dec-1-ylmethyl}-benzonitrile], the “Uptake_5-HT, rat, 1 μM, % inhibition” value on 5-HT transporter amounted to 57%. Further, in test [1], the “BTX Inhibition” value is reported as 56.
On to `Cc1cc(C)c(S(=O)(=O)N2CCC3(CC2)NC(C(C)C)C(=O)N3Cc2ccccc2)c(C)c1` (centres unmarked) [Example 14, 1-Benzyl-3-isopropyl-8-(2,4,6-trimethylbenzolsulfonyl)-1,4,8-triazaspiro[4,5]decan-2-one], for which, at 5-HT transporter, the “Uptake_5-HT, rat, 1 μM, % inhibition” value came to 61%. Moreover, in test [1], the “BTX Inhibition” value is reported as 68.
On the same counts, the results for `CCCCN1C(=O)C(CCSC)NC12CCN(S(=O)(=O)c1cccc(C)c1)CC2` (centres unmarked) [Example 18, 1-Butyl-3-(2-methylsulfanylethyl)-8-(toluol-3-sulfonyl)-1,4,8-triazaspiro[4,5]decan-2-one] are 68% and 32.
On to `CCCCN1C(=O)C(Cc2ccccc2)NC12CCN(S(=O)(=O)c1ccccc1C(F)(F)F)CC2` (centres unmarked) [Example 22, 3-Benzyl-1-butyl-8-(2-trifluoromethylbenzolsulfonyl)-1,4,8-triazaspiro[4,5]decan-2-one], for which the “Uptake_5-HT, rat, 1 μM, % inhibition” value at 5-HT transporter is reported as 66%. In test [1], the “BTX Inhibition” value is 38.
As for `COC(=O)c1ccccc1S(=O)(=O)N1CCC2(CC1)NC(CCSC)C(=O)N2Cc1ccc(F)cc1` (centres unmarked) [Example 23, Methyl 2-[1-(4-fluorobenzyl)-3-(2-methylsulfanylethyl)-2-oxo-1,4,8-triazaspiro[4,5]decan-8-sulfonyl]-benzoate], at 5-HT transporter, the inhibition at 1 µM was found to be 69%. Further, the “BTX Inhibition” value in test [1] came out at 40.
With `CSCCC1NC2(CCN(S(=O)(=O)c3ccccc3C(F)(F)F)CC2)N(Cc2ccc(F)cc2)C1=O` (centres unmarked) [Example 25, 1-(4-Fluorobenzyl)-3-(2-methylsulfanylethyl)-8-(2-trifluoromethylbenzolsulfonyl)-1,4,8-triazaspiro[4,5]decan-2-one], the “Uptake_5-HT, rat, 1 μM, % inhibition” value at 5-HT transporter came out at 58%. The “BTX Inhibition” value in test [1] came out at 57.
For `CSCCC1NC2(CCN(S(=O)(=O)c3cc(C)c(Cl)cc3C)CC2)N(Cc2ccc(F)cc2)C1=O` (centres unmarked) [Example 26, 8-(4-Chloro-2,5-dimethylbenzolsulfonyl)-1-(4-fluorobenzyl)-3-(2-methylsulfanylethyl)-1,4,8-triazaspiro[4,5]decan-2-one], at 5-HT transporter, the “Uptake_5-HT, rat, 1 μM, % inhibition” value is listed as 68%. Also, the “BTX Inhibition” value in test [1] is recorded as 38.
Turning to `COc1ccc(S(=O)(=O)N2CCC3(CC2)NC(Cc2ccccc2)C(=O)N3Cc2ccccc2)cc1OC` (centres unmarked) [Example 29, 1,3-Dibenzyl-8-(3,4-dimethoxy-benzolsulfonyl)-1,4,8-triazaspiro[4,5]decan-2-one], at 5-HT transporter, the “Uptake_5-HT, rat, 1 μM, % inhibition” value is given as 75%. The “BTX Inhibition” value in test [1] amounted to 47.
On to `CCCCN1C(=O)C(CCSC)NC12CCN(S(=O)(=O)c1ccc(OC)c(OC)c1)CC2` (centres unmarked) [Example 30, 1-Butyl-8-(3,4-dimethoxy-benzolsulfonyl)-3-(2-methylsulfanylethyl)-1,4,8-triazaspiro[4,5]decan-2-one], for which the “Uptake_5-HT, rat, 1 μM, % inhibition” value at 5-HT transporter was 53%.
As to `CCS(=O)(=O)N1CCC2(CC1)NC(CCSC)C(=O)N2Cc1ccccc1` (centres unmarked) [Example 32, 1-Benzyl-8-ethanesulfonyl-3-(2-methylsulfanylethyl)-1,4,8-triazaspiro[4,5]decan-2-one], the inhibition at 1 µM on 5-HT transporter was 64%.
Consider `CCCCN1C(=O)C(Cc2ccccc2)NC12CCN(S(=O)(=O)c1ccc(CC)cc1)CC2` (centres unmarked) [Example 33, 3-Benzyl-1-butyl-8-(4-ethylbenzolsulfonyl)-1,4,8-triazaspiro[4,5]decan-2-one], for which the “Uptake_5-HT, rat, 1 μM, % inhibition” value on 5-HT transporter is on record as 67%. The “BTX Inhibition” value in test [1] is recorded as 54.
As for `O=C1C(Cc2ccccc2)NC2(CCN(S(=O)(=O)c3ccccc3F)CC2)N1Cc1ccccc1` (centres unmarked) [Example 37, 1,3-Dibenzyl-8-(2-fluorobenzolsulfonyl)-1,4,8-triazaspiro[4,5]decan-2-one], the “Uptake_5-HT, rat, 1 μM, % inhibition” value on 5-HT transporter is recorded as 73%. Besides, the “BTX Inhibition” value in test [1] came out at 61.
For the molecule `COC(=O)c1ccccc1S(=O)(=O)N1CCC2(CC1)NC(CCSC)C(=O)N2Cc1ccccc1C#N` (centres unmarked) [Example 38, Methyl 2-[1-(2-cyanobenzyl)-3-(2-methylsulfanylethyl)-2-oxo-1,4,8-triazaspiro[4,5]decan-8-sulfonyl]-benzoate], on 5-HT transporter, the inhibition at 1 µM is 40%.
As to `CN1C(=O)C(Cc2ccccc2)NC12CCN(S(=O)(=O)c1cccc(Cl)c1)CC2` (centres unmarked) [Example 40, 3-Benzyl-8-(3-chlorobenzolsulfonyl)-1-methyl-1,4,8-triazaspiro[4,5]decan-2-one], on 5-HT transporter, the “Uptake_5-HT, rat, 1 μM, % inhibition” value was 57%.
Same read-out and setting: the figure for `CCC(C)(C)c1ccc(S(=O)(=O)N2CCC3(CC2)NC(CCSC)C(=O)N3Cc2ccccc2)cc1` (centres unmarked) [Example 41, 1-Benzyl-8-[4-(1,1-dimethylpropyl)benzolesulfonyl]-3-(2-methylsulfanylethyl)-1,4,8-triazaspiro[4,5]decan-2-one] is 56%.
For `CSCCC1NC2(CCN(S(=O)(=O)c3ccc(C)cc3)CC2)N(Cc2ccc(F)cc2)C1=O` (centres unmarked) [Example 44, 1-(4-Fluorobenzyl)-3-(2-methylsulfanylethyl)-8-(toluol-4-sulfonyl)-1,4,8-triazaspiro[4,5]decan-2-one], the “Uptake_5-HT, rat, 1 μM, % inhibition” value on 5-HT transporter is 42%. In test [1], the “BTX Inhibition” value is on record as 42.
On the same counts, the results for `Cc1ccc(S(=O)(=O)N2CCC3(CC2)NC(Cc2ccccc2)C(=O)N3Cc2ccccc2)cc1` (centres unmarked) [Example 45, 1,3-Dibenzyl-8-(toluol-4-sulfonyl)-1,4,8-triazaspiro[4,5]decan-2-one] are 74% and 37.
On the same counts, the results for `CCOC(=O)CN1C(=O)C(Cc2ccccc2)NC12CCN(S(=O)(=O)c1cccs1)CC2` (centres unmarked) [Example 48] are 85% and 30.
On the same counts, the results for `COC(=O)c1ccc(CN2C(=O)CNC23CCN(S(=O)(=O)Cc2ccccc2)CC3)cc1` [Example 51, Methyl 4-(2-Oxo-8-benzolmethansulfonyl-1,4,8-triazaspiro[4,5]dec-1-ylmethyl)benzoate] are 62% and 31.
`CC(C)C1NC2(CCN(S(=O)(=O)c3ccc([N+](=O)[O-])cc3)CC2)N(Cc2cccc(C#N)c2)C1=O` (centres unmarked) [Example 52, 3-[3-Isopropyl-8-(4-nitrobenzolsulfonyl)-2-oxo-1,4,8-triazaspiro[4,5]dec-1-ylmethyl]-benzonitrile]: the “Uptake_5-HT, rat, 1 μM, % inhibition” value at 5-HT transporter is 53%.
Regarding `CN(C)S(=O)(=O)N1CCC2(CC1)NCC(=O)N2Cc1ccccc1F` [Example 55, 1-(2-Fluorobenzyl)-2-oxo-1,4,8-triazaspiro[4,5]decan-8-sulfonic acid dimethylamide], the inhibition at 1 µM at 5-HT transporter is 57%.
As for `CC1(C)C2CCC1(CS(=O)(=O)N1CCC3(CC1)NCC(=O)N3Cc1ccccc1F)C(=O)C2` (centres unmarked) [Example 56, 8-(7,7-Dimethyl-2-oxobicyclo[2.2.1]hept-1-ylmethansulfonyl)-1-(2-fluorobenzyl)-1,4,8-triazaspiro[4,5]decan-2-one], the inhibition at 1 µM on 5-HT transporter amounted to 60%. Besides, in test [1], the “BTX Inhibition” value stood at 32.
For `C=CCN1C(=O)C(CCSC)NC12CCN(S(=O)(=O)Cc1ccccc1)CC2` (centres unmarked) [Example 58, 1-Allyl-3-(2-methylsulfanylethyl)-8-benzolmethansulfonyl-1,4,8-triazaspiro[4,5]decan-2-one], the “Uptake_5-HT, rat, 1 μM, % inhibition” value on 5-HT transporter is 56%.
As to `CCCCS(=O)(=O)N1CCC2(CC1)NC(Cc1ccccc1)C(=O)N2CC(=O)OCC` (centres unmarked) [Example 62, Ethyl[3-benzyl-8-(butan-1-sulfonyl)-2-oxo-1,4,8-triazaspiro[4,5]dec-1-yl]-acetate], at 5-HT transporter, the inhibition at 1 µM was 70%.
On the same count and under the same terms, the figure for `CC(C)NC(=S)N1CCC2(CC1)NC(=O)C(Cc1ccccc1)N2` (centres unmarked) [Example 103, 2-Benzyl-3-oxo-1,4,8-triazaspiro[4,5]decan-8-thiocarboxylic acid isopropylamide] is 41%.
Consider `C=CCN1C(=O)C(C(C)C)NC12CCN(C(=S)Nc1ccc(F)cc1)CC2` (centres unmarked) [Example 125, 1-Allyl-3-isopropyl-2-oxo-1,4,8-triazaspiro[4,5]decan-8-thiocarboxylic acid (4-fluorobenzol)amide], for which the “Uptake_5-HT, rat, 1 μM, % inhibition” value at 5-HT transporter came out at 34%.
Regarding `CCOC(=O)CN1C(=O)C(Cc2ccccc2)NC12CCN(C(=S)NC(=O)OCC)CC2` (centres unmarked) [Example 144, Ethyl(3-benzyl-8-ethoxycarbonylaminocarbothioyl-2-oxo-1,4,8-triazaspiro[4,5]dec-1-yl)acetate], at 5-HT transporter, the inhibition at 1 µM came to 47%.
Regarding `C=CCN1C(=O)C(C(C)C)NC12CCN(C(=S)Nc1c(F)c(F)c(F)c(F)c1F)CC2` (centres unmarked) [Example 149, 1-Allyl-3-isopropyl-2-oxo-1,4,8-triazaspiro[4,5]decan-8-thiocarboxylic acid pentafluorobenzolamide-amide], the “Uptake_5-HT, rat, 1 μM, % inhibition” value at 5-HT transporter is given as 55%.
In the case of `CSCCC1NC2(CCN(C(=S)NC(C)C)CC2)N(Cc2ccc(F)cc2)C1=O` (centres unmarked) [Example 176, 1-(4-Fluorobenzyl)-3-(2-methylsulfanylethyl)-2-oxo-1,4,8-triazaspiro[4,5]decan-8-thiocarboxylic acid isopropylamide], the inhibition at 1 µM on 5-HT transporter worked out at 32%.
`CSCCC1NC2(CCN(C(=O)Nc3cccc(F)c3)CC2)N(Cc2ccccc2C#N)C1=O` (centres unmarked) [Example 226, 1-(2-Cyanobenzyl)-3-(2-methylsulfanylethyl)-2-oxo-1,4,8-triazaspiro[4,5]decan-8-carboxylic acid (3-fluorobenzol)amide]: on 5-HT transporter, the “Uptake_5-HT, rat, 1 μM, % inhibition” value amounted to 55%.

Broadly, the inhibition is the percentage by which the read-out fell short of the control.
